From PubChem BioAssay (NCI)
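Growth conditions: 96-well plates. Treatment: test compound, 48 hours, 5 concentrations. Analysis: linear interpolation between bracketing concentrations; unreached endpoints set to highest concentration. GI50: concentration for 50% inhibition of growth. TGI: concentration producing complete growth inhibition.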

Columns and labels:
Assay in all cases: DTP human tumour cell line panel, 48 h
786-0 renal = system: 786-0 renal
DU-145 prostate = system: DU-145 prostate
EKVX NSCLC = system: EKVX NSCLC
HCT-116 colon = system: HCT-116 colon
HL-60(TB) leukemia = system: HL-60(TB) leukemia
K-562 leukemia = system: K-562 leukemia
LOX IMVI melanoma = system: LOX IMVI melanoma
MOLT-4 leukemia = system: MOLT-4 leukemia
NCI-H23 lung = system: NCI-H23 lung
OVCAR-8 ovarian = system: OVCAR-8 ovarian

| SMILES | GI50 (786-0 renal) [µM] | TGI (786-0 renal) [µM] | GI50 (DU-145 prostate) [µM] | TGI (DU-145 prostate) [µM] | GI50 (EKVX NSCLC) [µM] | TGI (EKVX NSCLC) [µM] | GI50 (HCT-116 colon) [µM] | TGI (HCT-116 colon) [µM] | GI50 (HL-60(TB) leukemia) [µM] | TGI (HL-60(TB) leukemia) [µM] | GI50 (K-562 leukemia) [µM] | TGI (K-562 leukemia) [µM] | GI50 (LOX IMVI melanoma) [µM] | TGI (LOX IMVI melanoma) [µM] | GI50 (MOLT-4 leukemia) [µM] | TGI (MOLT-4 leukemia) [µM] | GI50 (NCI-H23 lung) [µM] | TGI (NCI-H23 lung) [µM] | GI50 (OVCAR-8 ovarian) [µM] | TGI (OVCAR-8 ovarian) [µM] |
| --- | --- | --- | --- | --- | --- | --- | --- | --- | --- | --- | --- | --- | --- | --- | --- | --- | --- | --- | --- | --- |
| CN1C(=O)CNC(=O)[C@H](NC(=O)c2nc3ccccc3cc2O)CSSC[C@H]1C(=O)NCCc1nc2ccccc2cc1O | 22.1 | 49 | 5.19 | 23.2 | 11 | > 61.4 | 2.05 | 57.6 | 1.22 | 5.1 | 1.57 | 13.9 | 0.442 | 6.77 | 1.4 | 14.8 | 13.6 | 60.9 | 20.8 | 53.9 |
| ClCCN(CCCl)c1ccc(-n2cnc3c(Cl)ncnc32)cc1 | 14 | 28.4 | 1.88 | 3.59 | 1.65 | 3.66 | 1.82 | 3.33 | 2.5 | 6.58 | 3.24 | 9.92 | 2 | 4.09 | 2.99 | 7.84 | 2.02 | 3.79 | 2.37 | 5.38 |
| CC(=O)/C=C/C1=C(c2cc3ccccc3s2)c2ccccc2CC1 | 33.2 | > 100 | 52.8 | > 100 | 39.5 | > 100 | 20.7 | 65.1 | 16.4 | 98.2 | 15.2 | > 100 | 20.3 | 67.3 | 13.6 | > 100 | – | – | 39.4 | > 100 |
| CCC(Sc1nnc2c3ccccc3n(CC)c2n1)C(=O)Nc1ccccc1OC (stereo unspecified) | > 100 | > 100 | > 100 | > 100 | 1.08 | > 30.1 | 48.5 | > 100 | 3.02 | 6.91 | > 100 | > 100 | > 100 | > 100 | 35 | > 100 | 3.41 | > 100 | > 100 | > 100 |
| COc1cc(CSc2nc3ccc(C)cc3c(=O)n2Cc2ccccc2)cc(OC)c1OC | 7.49 | 65.6 | 3.14 | 20.4 | – | – | 2.08 | 48.9 | 3.3 | > 100 | 0.624 | > 100 | 4.66 | > 100 | 4.57 | > 100 | 4.4 | > 100 | 4.41 | > 100 |
| COCCOC(=O)C1=C(C)NC2=C(C(=O)CC(c3ccccc3OC)C2)C1c1cccc(O)c1 (stereo unspecified) | 12.2 | 51.6 | 23.5 | > 91.9 | 14.4 | > 100 | 12.8 | 35.4 | 3.2 | 36 | 7.97 | > 85.4 | 9.04 | 30.4 | 22 | > 77.6 | 14.7 | 56.6 | 11.3 | 34.9 |
| COc1ccc(C(O)CNC(=O)c2ccccc2)cc1 (stereo unspecified) | – | > 100 | – | > 100 | – | > 100 | – | > 100 | – | > 100 | – | > 100 | – | > 100 | – | > 100 | – | > 100 | – | > 100 |
| CN1CCN(c2ccc3nc(-c4cc(C(C)(C)C)c(O)c(C(C)(C)C)c4)[nH]c3c2)CC1 | 1.82 | 3.5 | 4.66 | 16 | 4.3 | 16.5 | 1.85 | 4.06 | 2.22 | 4.52 | 1.94 | 4.97 | 1.83 | 3.41 | 2.2 | 5.55 | 3.31 | 10.3 | 5 | 19.1 |
| Nc1cc(-c2ccccc2)ccc1O | > 100 | > 100 | 82.3 | > 100 | 82.2 | > 100 | 54.6 | > 100 | 45.4 | > 100 | > 100 | > 100 | 62.9 | > 100 | 51.9 | > 100 | > 100 | > 100 | > 100 | > 100 |
| COc1ccc(-c2n[nH]nc2-c2csc3ccccc23)cc1OC | 3.26 | 22.6 | 3.77 | > 100 | 3.42 | > 100 | 2.84 | 15.3 | 1.7 | 25.1 | 0.516 | > 100 | 3.04 | 15.7 | 3.05 | 27.7 | 3.93 | 27.9 | 4.24 | 39.1 |
| C#C[C@]1(O)CC[C@H]2[C@@H]3CC=C4c5sc(N=C(N)N)nc5CC[C@]4(C)[C@H]3CC[C@@]21C | 0.453 | 1.81 | 1.19 | 2.67 | 1.25 | 2.85 | 0.989 | 2.29 | 0.425 | 1.92 | 0.354 | 1.35 | 0.443 | 1.63 | 0.297 | 1.01 | 1.26 | 2.92 | 1.63 | 4.53 |
| O=C1OC(c2ccc(O)c(-c3ccccc3)c2)(c2ccc(O)c(-c3ccccc3)c2)c2c(Cl)c(Cl)c(Cl)c(Cl)c21 | – | > 100 | – | > 100 | – | > 100 | – | > 100 | – | 12.3 | – | > 100 | – | > 100 | – | > 100 | – | > 100 | – | > 100 |
